Assay results reported in patent publication US6525001B1, “Substituted pyrimidine and pyridine herbicides” (Mid-American Commercialization Corporation, priority 1997, dated 2003).

Tests used:
Assay type in all cases: in vivo
[1] = test system: duck salad (Heteranthera limosa); experiment: Test B flood test
Procedure, shortened: (§1)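 Flood test on plants grown to the 2-leaf stage; treated plants kept in greenhouse twelve to sixteen days, then visually rated against controls on a 0 (no effect) to 10 (complete control) scale.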

[2] = test system: rice (Oryza sativa); experiment: Test B flood test
Procedure, shortened: as §1

[3] = test system: bamyardgrass (Echinochloa crus-galli); experiment: Test B flood test
Procedure, shortened: as §1

[4] = test system: smallflower flatsedge (Cyperus difformis); experiment: Test B flood test
Procedure, shortened: as §1

[5] = test system: wheat (Triticum aestivum); experiment: Test B pre-/postemergence; set-up: key: 0 is no effect; 10 is complete control
Procedure, shortened: (§2)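 Scored visually 0 (none) to 10 (complete control) against untreated plants after twelve to sixteen greenhouse days. Test chemicals, formulated in surfactant-containing non-phytotoxic solvent, applied to soil after planting and, separately, onto 1- to 4-leaf (2–18 cm) plants.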

[6] = test system: cocklebur (Xanthium strumarium); experiment: Test B pre-/postemergence; set-up: key: 0 is no effect; 10 is complete control; settings: for Cocklebur plant response rating: Preemergence
Procedure, shortened: as §2

[7] = test system: broadleaf signalgrass (Brachiaria decumbens); experiment: Test B pre-/postemergence; set-up: key: 0 is no effect; 10 is complete control; settings: for B. signalgrass plant response rating: Preemergence
Procedure, shortened: as §2

[8] = test system: bedstraw (Galium aparine); experiment: Test B pre-/postemergence; set-up: key: 0 is no effect; 10 is complete control; settings: for Bedstraw plant response rating: Preemergence
Procedure, shortened: as §2

[9] = test system: crabgrass (Digitaria sanguinalis); experiment: Test B pre-/postemergence; set-up: key: 0 is no effect; 10 is complete control; settings: for Crabgrass plant response rating: Preemergence
Procedure, shortened: as §2

[10] = test system: purple nutsedge (Cyperus rotundus); experiment: Test B pre-/postemergence; set-up: key: 0 is no effect; 10 is complete control
Procedure, shortened: as §2

[11] = test system: soybean (Glycine max); experiment: Test B pre-/postemergence; set-up: key: 0 is no effect; 10 is complete control
Procedure, shortened: as §2

[12] = test system: momingglory (Ipomoea hederacea); experiment: Test B pre-/postemergence; set-up: key: 0 is no effect; 10 is complete control
Procedure, shortened: as §2

[13] = test system: wild oat (Avena fatua); experiment: Test B pre-/postemergence; set-up: key: 0 is no effect; 10 is complete control
Procedure, shortened: as §2

[14] = test system: giant foxtail (Setaria faberii); experiment: Test B pre-/postemergence; set-up: key: 0 is no effect; 10 is complete control
Procedure, shortened: as §2

[15] = test system: sugar beet (Beta vulgaris); experiment: Test B pre-/postemergence; set-up: key: 0 is no effect; 10 is complete control
Procedure, shortened: as §2

[16] = test system: blackgrass (Alopecurus myosuroides); experiment: Test B pre-/postemergence; set-up: key: 0 is no effect; 10 is complete control; settings: for Blackgrass plant response rating: Preemergence
Procedure, shortened: as §2

[17] = test system: pigweed (Amaranthus retroflexus); experiment: Test B pre-/postemergence; set-up: key: 0 is no effect; 10 is complete control
Procedure, shortened: as §2

[18] = test system: velvetleaf (Abutilon theophrasti); experiment: Test B pre-/postemergence; set-up: key: 0 is no effect; 10 is complete control
Procedure, shortened: as §2

[19] = test system: corn (Zea mays); experiment: Test B pre-/postemergence; set-up: key: 0 is no effect; 10 is complete control; settings: for Corn plant response rating: Preemergence
Procedure, shortened: as §2

[20] = test system: rape (Brassica napus); experiment: Test B pre-/postemergence; set-up: key: 0 is no effect; 10 is complete control
Procedure, shortened: as §2

[21] = Rate 62 g/ha, Postemergence (flood test)
[22] = Rate 125 g/ha, Postemergence, flood test
[23] = Rate 250 g/ha, Postemergence (flood test species)
[24] = Rate 125 g/ha, Postemergence section (flood test species)
[25] = Rate 250 g/ha, Postemergence (so in the source)

SMILES: Cc1cnc(-c2ccc(Cl)cc2F)nc1Cc1cccc(C(F)(F)F)c1 [Compound 29]
- Plant response rating, Ducksalad [1, 21]: 1
- Plant response rating, Ducksalad [1, 22]: 3
- Plant response rating, Ducksalad [1, 23]: 4
- Plant response rating, Rice [2, 21]: 1
- Rice plant response rating [2, 24]: 2
- Plant response rating, Rice [2, 23]: 3
- Plant response rating, Barnyardgrass [3, 21]: 2
- Plant response rating, Barnyardgrass [3, 22]: 3
- Plant response rating, Barnyardgrass [3, 23]: 4
- Plant response rating, S. Flatsedge [4, 21]: 1
- S. Flatsedge plant response rating [4, 24]: 6
- Plant response rating, S. Flatsedge [4, 23]: 8
- Wheat plant response rating ([5]; Rate 62 g/ha, Postemergence): 2
- Wheat plant response rating ([5]; Rate 62 g/ha, Preemergence): 0
- Wheat plant response rating ([5]; Rate 125 g/ha, Postemergence): 3
- Plant response rating, Wheat ([5]; Rate 125 g/ha, Preemergence): 0
- Plant response rating, Wheat ([5]; Rate 250 g/ha, Postemergence): 4
- Plant response rating, Wheat [5, 25]: 0
- Plant response rating, Cocklebur ([6]; Rate 62 g/ha, Postemergence): 6
- Cocklebur plant response rating ([6]; Rate 62 g/ha): 0
- Plant response rating, Cocklebur ([6]; Rate 125 g/ha, Postemergence): 6
- Cocklebur plant response rating ([6]; Rate 125 g/ha): 0
- Plant response rating, Cocklebur ([6]; Rate 250 g/ha, Postemergence): 8
- Plant response rating, Cocklebur [6, 25]: 0
- Plant response rating, B. signalgrass ([7]; Rate 62 g/ha, Postemergence): 3
- B. signalgrass plant response rating ([7]; Rate 62 g/ha): 1
- Plant response rating, B. signalgrass ([7]; Rate 125 g/ha, Postemergence): 3
- B. signalgrass plant response rating ([7]; Rate 125 g/ha): 3
- Plant response rating, B. signalgrass ([7]; Rate 250 g/ha, Postemergence): 5
- Plant response rating, B. signalgrass ([7]; Rate 250 g/ha, Postemergence as printed in head r139 (second section for compounds 26-50)): 4
- Plant response rating, Bedstraw ([8]; Rate 62 g/ha, Postemergence): 2
- Bedstraw plant response rating ([8]; Rate 62 g/ha): 0
- Plant response rating, Bedstraw ([8]; Rate 125 g/ha, Postemergence): 9
- Bedstraw plant response rating ([8]; Rate 125 g/ha): 1
- Plant response rating, Bedstraw ([8]; Rate 250 g/ha, Postemergence): 9
- Plant response rating, Bedstraw [8, 25]: 3
- Plant response rating, Crabgrass ([9]; Rate 62 g/ha, Postemergence): 4
- Crabgrass plant response rating ([9]; Rate 62 g/ha): 2
- Plant response rating, Crabgrass ([9]; Rate 125 g/ha, Postemergence): 6
- Crabgrass plant response rating ([9]; Rate 125 g/ha): 4
- Plant response rating, Crabgrass ([9]; Rate 250 g/ha, Postemergence): 9
- Plant response rating, Crabgrass [9, 25]: 7
- Plant response rating, Nutsedge ([10]; Rate 62 g/ha, Postemergence): 0
- Nutsedge plant response rating ([10]; Rate 62 g/ha, Preemergence): 0
- Nutsedge plant response rating ([10]; Rate 125 g/ha, Postemergence): 0
- Nutsedge plant response rating ([10]; Rate 125 g/ha, Preemergence): 0
- Plant response rating, Soybean ([11]; Rate 62 g/ha, Postemergence): 3
- Soybean plant response rating ([11]; Rate 62 g/ha, Preemergence): 0
- Soybean plant response rating ([11]; Rate 125 g/ha, Postemergence): 4
- Plant response rating, Soybean ([11]; Rate 125 g/ha, Preemergence): 0
- Plant response rating, Soybean ([11]; Rate 250 g/ha, Postemergence): 7
- Plant response rating, Soybean [11, 25]: 0
- Plant response rating, Morningglory ([12]; Rate 62 g/ha, Postemergence): 8
- Morningglory plant response rating ([12]; Rate 62 g/ha, Preemergence): 0
- Morningglory plant response rating ([12]; Rate 125 g/ha, Postemergence): 10
- Morningglory plant response rating ([12]; Rate 125 g/ha, Preemergence): 2
- Plant response rating, Morningglory ([12]; Rate 250 g/ha, Postemergence): 10
- Plant response rating, Morningglory [12, 25]: 3
- Wild oats plant response rating ([13]; Rate 62 g/ha, Postemergence): 1
- Wild oats plant response rating ([13]; Rate 62 g/ha, Preemergence): 0
- Wild oats plant response rating ([13]; Rate 125 g/ha, Postemergence): 2
- Plant response rating, Wild oats ([13]; Rate 125 g/ha, Preemergence): 0
- Plant response rating, Wild oats ([13]; Rate 250 g/ha, Postemergence): 4
- Plant response rating, Wild oats [13, 25]: 1
- Plant response rating, Giant foxtail ([14]; Rate 62 g/ha, Postemergence): 3
- Giant foxtail plant response rating ([14]; Rate 62 g/ha, Preemergence): 1
- Giant foxtail plant response rating ([14]; Rate 125 g/ha, Postemergence): 4
- Giant foxtail plant response rating ([14]; Rate 125 g/ha, Preemergence): 4
- Plant response rating, Giant foxtail ([14]; Rate 250 g/ha, Postemergence): 4
- Plant response rating, Giant foxtail [14, 25]: 9
- Plant response rating, Sugarbeets ([15]; Rate 62 g/ha, Postemergence): 9
- Sugarbeets plant response rating ([15]; Rate 62 g/ha, Preemergence): 0
- Sugarbeets plant response rating ([15]; Rate 125 g/ha, Postemergence): 9
- Plant response rating, Sugarbeets ([15]; Rate 125 g/ha, Preemergence): 3
- Plant response rating, Sugarbeets ([15]; Rate 250 g/ha, Postemergence): 10
- Plant response rating, Sugarbeets [15, 25]: 4
- Plant response rating, Blackgrass ([16]; Rate 62 g/ha, Postemergence): 2
- Blackgrass plant response rating ([16]; Rate 62 g/ha): 1
- Plant response rating, Blackgrass ([16]; Rate 125 g/ha, Postemergence): 3
- Blackgrass plant response rating ([16]; Rate 125 g/ha): 1
- Plant response rating, Blackgrass ([16]; Rate 250 g/ha, Postemergence): 5
- Plant response rating, Blackgrass [16, 25]: 3
- Plant response rating, Redroot pigweed ([17]; Rate 62 g/ha, Postemergence): 8
- Redroot pigweed plant response rating ([17]; Rate 62 g/ha, Preemergence): 0
- Redroot pigweed plant response rating ([17]; Rate 125 g/ha, Postemergence): 10
- Redroot pigweed plant response rating ([17]; Rate 125 g/ha, Preemergence): 3
- Plant response rating, Redroot pigweed ([17]; Rate 250 g/ha, Postemergence): 10
- Plant response rating, Redroot pigweed [17, 25]: 3
- Plant response rating, Velvetleaf ([18]; Rate 62 g/ha, Postemergence): 3
- Velvetleaf plant response rating ([18]; Rate 62 g/ha, Preemergence): 0
- Velvetleaf plant response rating ([18]; Rate 125 g/ha, Postemergence): 3
- Plant response rating, Velvetleaf ([18]; Rate 125 g/ha, Preemergence): 0
- Plant response rating, Velvetleaf ([18]; Rate 250 g/ha, Postemergence): 4
- Plant response rating, Velvetleaf [18, 25]: 0
- Plant response rating, Corn ([19]; Rate 62 g/ha, Postemergence): 2
- Corn plant response rating ([19]; Rate 62 g/ha): 0
- Plant response rating, Corn ([19]; Rate 125 g/ha, Postemergence): 2
- Corn plant response rating ([19]; Rate 125 g/ha): 0
- Plant response rating, Corn ([19]; Rate 250 g/ha, Postemergence): 3
- Plant response rating, Corn [19, 25]: 0
- Plant response rating, Rape ([20]; Rate 62 g/ha, Postemergence): 8
- Rape plant response rating ([20]; Rate 62 g/ha, Preemergence): 1
- Rape plant response rating ([20]; Rate 125 g/ha, Postemergence): 9
- Rape plant response rating ([20]; Rate 125 g/ha, Preemergence): 1
- Plant response rating, Rape ([20]; Rate 250 g/ha, Postemergence): 9
- Plant response rating, Rape [20, 25]: 1
